From patent EP4653444A1, “FUSED TRICYCLIC COMPOUND AS KINASE INHIBITOR” (Hangzhou Innogate Pharma Co., Ltd., priority 2023, dated 2024)
Like-named read-outs stand apart in the source and are kept apart here.

Key:
[1] = Pharmacokinetic study in rats; conditions: rat, plasma, po, 3 mg/kg
Method: Pharmacokinetic parameters were calculated by statistical moment method using WinNonLin 8.0 software, mainly including Tmax, T1/2, Cmax and AUC0-24h.
Animals: Three male SD rats weighing 200-220 g were used. After purchase, they were housed in the laboratory animal center for 2 days before experiment. […] Blood samples were collected at scheduled time points after oral gavage.
Vehicle: 0.4% ethanol + 0.4% Tween 80 + 99.2% (0.5% methylcellulose M450). Preparation of oral gavage solution: The compound was accurately weighed and dissolved in vehicle by ultrasonication for 5 min at room temperature to prepare 0.3 mg/mL drug solution.
Single compound administration was also used to study pharmacokinetics in rats.
Blood sample collection: After oral gavage, blood samples were collected from orbital sinus at 0.25, 0.5, 1, 2, 4, 8, 10 and 24 h. 50 µL plasma was mixed with 200 µL acetonitrile (containing 2 ng/mL verapamil as internal standard). The mixture was vortexed for 3 min, then centrifuged at 20000 rcf for 10 min at 4 °C. The supernatant was analyzed by LC-MS/MS.
Standard curves were established by accurately weighing and preparing compounds at different concentrations for mass spectrometric quantification. Compound concentrations in plasma samples were determined based on standard curves to obtain concentration-time profiles. All measurement data were collected and processed by relevant software. Pharmacokinetic parameters (including Tmax, T1/2, Cmax and AUC0-24h) were calculated by statistical moment method.

FAK kinase [2] = biological target: T1, FAK kinase (Homo sapiens, UniProt Q05397); experiment: FAK kinase activity inhibition assay, method A (HTRF); type: biochemical
Method: (§1) The HTRF method was used to evaluate the inhibitory activity of the compounds against FAK kinase. […]. The reaction conditions were: FAK kinase at 0.1 ng/µL; ATP 10 µM; substrate concentration 1 µM. Compounds were serially diluted in DMSO and shaken on a shaker for 20 minutes. Prepare 2× kinase using 1× reaction buffer. Transfer 25 nL compound to a 384-well plate using Echo 655. Add 2.5 µL kinase per well. Seal the plate with sealing film, centrifuge at 1000 rpm for 60 seconds, and incubate at 25°C for 12 hours. Prepare 2× ATP/substrate mix using 1× enzyme reaction buffer and add 2.5 µL 2× ATP/substrate mix per well. Seal the plate with sealing film, centrifuge at 1000 rpm for 60 seconds, and incubate at 25°C for 50 minutes. Prepare 2×XL665 & antibody solution using HTRF detection buffer, and add 5 µL per well. Incubate at 25°C for 60 minutes. Read fluorescence at 620 nm (Cryptate) and 665 nm (XL665). Calculate the ratio per well (Ratio_665/620 nm). % Inhibition = 100% - [(Compound Ratio - Positive Control Ratio)/ (Negative Control Ratio - Positive Control Ratio)] × 100%. IC50 values (half-maximal inhibitory concentration) were calculated by nonlinear regression using GraphPad Prism 7.0. Y = Bottom + (Top - Bottom)/ (1 + 10^ ((LogIC50 - X) × Hill Slope)), where X is the log of compound concentration and Y is the % inhibition.

FAK kinase [3] = biological target: T1, FAK kinase; experiment: FAK kinase activity inhibition assay, method A (HTRF) and method B (Lantha screen); type: biochemical
Method: as §1
The Lantha screen assay was used to evaluate the FAK kinase inhibitory activity. Compounds were dissolved in 100% DMSO at 10 mM stock concentration. Prepare 1× kinase buffer (25 mM HEPES, pH 7.5, 0.01 mM Triton, 0.5 mM EGTA, 0.01% Brij-35). Dilute compounds in a gradient, and transfer 5 µL compound into the reaction plate. Prepare 2× kinase solution with 1× Kinase buffer. Add 5 µL kinase solution to compound and positive control wells, and 5 µL 1× Kinase buffer to negative control wells. Mix reaction plate by shaking. Prepare 4× ATP/Fluorescein-polyGT substrate mix with 1× Kinase buffer. Add 2.5 µL substrate solution to initiate the reaction. Shake and incubate at room temperature for 30 minutes. Prepare 2× detection reagent (2 nM antibody, 10 mM EDTA) and add 10 µL per well to stop the reaction. Briefly centrifuge, mix, and incubate for 60 minutes. Read fluorescence at 340 nm excitation and 520 nm/495 nm emission using EnVision. Collect data and calculate 520 nm/495 nm ratio. Calculate the inhibition percentage using the formula: % Inhibition = (Max - Sample Ratio)/(Max - Min) × 100, where min is the mean of negative control wells (no enzyme activity), and max is the mean of positive control wells (DMSO-inhibited conversion rate).Use XLFit Excel add-in version 5.4.0.8 to determine the IC50 values of each compound against the enzyme activity: Y = Bottom + (Top - Bottom)/(1 + (IC50/X)^HillSlope).

TNK1 kinase = biological target: T2, TNK1 kinase (Homo sapiens, UniProt Q13470); experiment: TNK1 kinase activity inhibition assay (ADP-Glo); type: biochemical
T2 sequence (Q13470 1-666): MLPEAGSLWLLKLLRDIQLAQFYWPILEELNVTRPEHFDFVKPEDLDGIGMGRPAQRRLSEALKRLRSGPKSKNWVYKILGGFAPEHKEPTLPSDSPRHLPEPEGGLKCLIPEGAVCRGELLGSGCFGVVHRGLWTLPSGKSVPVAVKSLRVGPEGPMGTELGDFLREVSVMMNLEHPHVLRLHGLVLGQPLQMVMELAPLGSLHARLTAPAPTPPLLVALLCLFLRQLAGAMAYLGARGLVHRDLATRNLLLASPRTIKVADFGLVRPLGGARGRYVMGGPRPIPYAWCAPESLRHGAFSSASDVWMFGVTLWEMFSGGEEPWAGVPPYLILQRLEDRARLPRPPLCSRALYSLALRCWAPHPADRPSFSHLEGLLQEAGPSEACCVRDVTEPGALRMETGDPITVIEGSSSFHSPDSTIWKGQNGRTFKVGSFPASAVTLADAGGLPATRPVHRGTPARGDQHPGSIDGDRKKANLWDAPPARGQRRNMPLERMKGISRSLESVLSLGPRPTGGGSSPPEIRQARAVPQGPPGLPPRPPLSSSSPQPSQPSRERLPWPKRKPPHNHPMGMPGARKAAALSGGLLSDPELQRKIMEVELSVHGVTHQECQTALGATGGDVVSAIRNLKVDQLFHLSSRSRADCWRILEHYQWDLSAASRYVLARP
Method: Measure compound inhibitory activity against TNK1 kinase using ADP-Glo Assay. 1× kinase reaction buffer was prepared (working concentrations: HEPES 50 mM, MgCl2 10 mM, Brij35 0.01%, EGTA 1 mM, DTT 2 mM). 2× kinase and 4× substrate buffers were prepared with the following working concentrations: For TNK1 kinase: kinase solution at 5 nM; substrate mixture containing ATP at 45 µM and MBP substrate at 0.1 mg/ mL. For ULK2 kinase: kinase solution at 0.15 nM; substrate mixture containing ATP at 6 µM and MBP substrate at 0.1 mg/mL. Compounds were serially diluted in DMSO and shaken on an orbital shaker for 20 minutes. 2× kinase solution was prepared using 1× kinase reaction buffer. 20 nL of compound solution was transferred to a 384-well plate. 2 µL of kinase solution was added to each well of the reaction plate. The plate was sealed with adhesive film, centrifuged at 1000 rpm for 60 seconds, and incubated at 25°C for 10 minutes. 2× ATP&MBP mixture was prepared using 1× kinase reaction buffer. 2 µL of 2× ATP&substrate mixture was added to the reaction plate. The plate was sealed with adhesive film, centrifuged at 1000 rpm for 60 seconds, and incubated at 25°C for 60 minutes. 4 µL of ADP-Glo reagent was transferred to the 384-well reaction plate, centrifuged at 1000 rpm for 1 minute, and incubated at 25°C for 40 minutes. 8 µL of Detection solution was transferred to the 384-well reaction plate, centrifuged at 1000 rpm for 1 minute, and incubated at 25°C for 40 minutes. Relative luminescence units (RLU) were measured using a BMG microplate reader, with signal intensity representing kinase activity level. The inhibition percentage was calculated as follows: % inhibition = 100% - [(Compound RLU - Positive Control RLU)/(Negative Control RLU - Positive Control RLU)] × 100%. The IC50 values (half-maximal inhibitory concentration) of compounds were determined by fitting the data to the following nonlinear regression equation using GraphPad Prism 7.0 software: Y = Bottom + (Top - Bottom)/(1 + 10^((LogIC50 - X) × Hill Slope)), where: X = log(compound concentration), Y = % inhibition. Table1: Inhibitory activity of compounds against ULK (IC50, nM)

[4] = Table 2, HTRF, ATP 10 µM, read-out: FAK (method A) (IC50)
[5] = Table 4, read-out: FAK(method A and method B) (IC50)

T1 sequence (Q05397 whole entry): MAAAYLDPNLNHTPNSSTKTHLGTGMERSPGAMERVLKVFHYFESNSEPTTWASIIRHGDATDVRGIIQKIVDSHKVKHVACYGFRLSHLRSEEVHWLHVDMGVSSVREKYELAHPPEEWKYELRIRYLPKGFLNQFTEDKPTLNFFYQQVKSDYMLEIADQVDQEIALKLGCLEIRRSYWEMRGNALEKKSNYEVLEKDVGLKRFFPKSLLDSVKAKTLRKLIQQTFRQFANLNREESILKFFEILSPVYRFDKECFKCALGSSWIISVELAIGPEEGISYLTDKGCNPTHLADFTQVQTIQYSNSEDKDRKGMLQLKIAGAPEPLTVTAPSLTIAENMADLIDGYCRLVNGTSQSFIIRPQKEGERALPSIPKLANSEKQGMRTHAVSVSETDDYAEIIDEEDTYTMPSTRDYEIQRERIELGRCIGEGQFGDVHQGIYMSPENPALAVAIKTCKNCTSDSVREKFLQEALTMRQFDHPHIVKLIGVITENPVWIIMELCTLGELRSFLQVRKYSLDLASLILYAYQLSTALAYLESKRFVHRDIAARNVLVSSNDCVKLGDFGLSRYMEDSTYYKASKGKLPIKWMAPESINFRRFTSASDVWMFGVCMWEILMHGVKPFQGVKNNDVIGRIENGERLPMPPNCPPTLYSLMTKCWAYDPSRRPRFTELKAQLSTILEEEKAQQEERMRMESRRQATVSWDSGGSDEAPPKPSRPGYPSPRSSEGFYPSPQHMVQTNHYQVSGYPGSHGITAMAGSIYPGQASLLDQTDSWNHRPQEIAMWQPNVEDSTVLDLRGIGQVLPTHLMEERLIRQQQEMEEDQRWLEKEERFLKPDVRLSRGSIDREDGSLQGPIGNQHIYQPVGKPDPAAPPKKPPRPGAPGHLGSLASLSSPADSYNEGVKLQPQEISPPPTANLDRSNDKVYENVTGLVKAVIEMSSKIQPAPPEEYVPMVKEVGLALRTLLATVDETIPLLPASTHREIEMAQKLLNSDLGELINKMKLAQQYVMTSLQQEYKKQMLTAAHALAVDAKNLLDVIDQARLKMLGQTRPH

SMILES: CCc1cc2c(cc1Nc1ncc(C(F)(F)F)c(NCCCN3CCOCCC3=O)n1)OC[C@@H]1CN(C3CCN(C)CC3)CCN21 [Compound A2S]
- AUC(0-t) at 24 h [1]: 98 ng·h/mL
- Cmax [1]: 11.8 ng/mL
- Tmax [1]: 1.17 h
- half-life [1]: 7.05 h

SMILES: COc1cc2c(cc1Nc1ncc(C(F)(F)F)c(CCc3ccccc3CC(N)=O)n1)OC[C@H]1CN(C)CCN21 [Compound B1R]
- IC50 (FAK kinase [2]; [4]): < 0.5 nM
- AUC(0-t) at 24 h [1]: 2330 ng·h/mL
- Cmax [1]: 387 ng/mL
- Tmax [1]: 2.7 h
- half-life [1]: 2.9 h

SMILES: COc1cc2c(cc1Nc1ncc(C(F)(F)F)c(CCc3ccccc3CC(N)=O)n1)OC[C@H]1CN(C3CCN(C)CC3)CCN21 [Compound B2R]
- IC50 (FAK kinase [2]): < 0.5 nM
- AUC(0-t) at 24 h [1]: 880 ng·h/mL
- Cmax [1]: 76.4 ng/mL
- Tmax [1]: 4.7 h
- half-life [1]: 7.4 h

SMILES: COc1cc2c(cc1Nc1ncc(C(F)(F)F)c(CCc3ccccc3CC(N)=O)n1)OC[C@H]1CNCCN21 [Compound B3R]
- IC50 (FAK kinase [2]; [4]): < 0.5 nM
- AUC(0-t) at 24 h [1]: 690 ng·h/mL
- Cmax [1]: 68.9 ng/mL
- Tmax [1]: 3.3 h
- half-life [1]: 7.9 h

SMILES: COc1cc2c(cc1Nc1ncc(C(F)(F)F)c(CCc3ccccc3CC(N)=O)n1)OC[C@H]1CN(C3CCOCC3)CCN21 [Compound B4R]
- IC50 (FAK kinase [2]): < 0.5 nM
- AUC(0-t) at 24 h [1]: 568 ng·h/mL
- Cmax [1]: 200 ng/mL
- Tmax [1]: 0.8 h
- half-life [1]: 1.5 h

SMILES: COc1cc2c(cc1Nc1ncc(C(F)(F)F)c(CCc3ccccc3CC(N)=O)n1)OC[C@H]1CN(C3CCNCC3)CCN21 [Compound B10R]
- IC50 (FAK kinase [2]; [4]): < 0.5 nM

SMILES: CC(C)Oc1cc2c(cc1Nc1ncc(Cl)c(Nc3ccccc3S(=O)(=O)C(C)C)n1)OC[C@@H]1CN(C3CCN(C)CC3)CCN21 [Compound C3S]
- IC50 (FAK kinase [3]; Table 3, read-out: FAK(method A and B) (IC50)): < 5 nM

SMILES: CNC(=O)c1ccccc1Nc1cc(Nc2cc3c(cc2OC)N2CCN(C4CCOCC4)C[C@H]2CO3)ncc1C(F)(F)F [Compound D1S]
- IC50 (FAK kinase [3]): < 0.5 nM
- AUC(0-t) at 24 h [1]: 11000 ng·h/mL
- Cmax [1]: 2320 ng/mL
- Tmax [1]: 1.67 h
- half-life [1]: 2.63 h

SMILES: CNC(=O)c1ccccc1Nc1cc(Nc2cc3c(cc2OC)N2CCN(C4COC4)C[C@H]2CO3)ncc1C(F)(F)F [Compound D3S]
- IC50 (FAK kinase [3]; [5]): < 1 nM

SMILES: CCOc1cc2c(cc1Nc1cc(Nc3ccccc3C(=O)NC)c(C(F)(F)F)cn1)OC[C@@H]1CN(C3CCN(C)CC3)CCN21 [Compound D5S]
- IC50 (FAK kinase [3]; [5]): < 1 nM

SMILES: CNC(=O)c1ccccc1Nc1cc(Nc2cc3c(cc2OC(C)C)N2CCN(C4CCN(C)CC4)C[C@H]2CO3)ncc1C(F)(F)F [Compound D6S]
- IC50 (FAK kinase [3]): < 3 nM
- AUC(0-t) at 24 h [1]: 675 ng·h/mL
- Cmax [1]: 52.3 ng/mL
- Tmax [1]: 6.67 h
- half-life [1]: 5.74 h

SMILES: COc1cc2c(cc1Nc1ncc(Cl)c(Nc3cccnc3N3CCCC3=O)n1)OC[C@H]1CNCCN21 [Compound E1R]
- IC50 (TNK1 kinase): < 0.5 nM

SMILES: COc1cc2c(cc1Nc1ncc(Cl)c(Nc3cccnc3N3CCCC3=O)n1)OC[C@H]1CN(C)CCN21 [Compound E2R]
- IC50 (TNK1 kinase): < 0.5 nM
- AUC(0-t) at 24 h [1]: 332 ng·h/mL
- Cmax [1]: 74.4 ng/mL
- Tmax [1]: 1 h
- half-life [1]: 2.07 h

SMILES: COc1cc2c(cc1Nc1ncc(Cl)c(Nc3cccnc3N3CCCC3=O)n1)OC[C@H]1CN(C3CCN(C)CC3)CCN21 [Compound E3R]
- IC50 (TNK1 kinase; Table 5, ATP 45 µM, read-out: TNK1 (IC50)): < 0.5 nM

SMILES: COc1cc2c(cc1Nc1ncc(Cl)c(Nc3cccnc3N3CCCC3=O)n1)OC[C@H]1CN(C3CCOCC3)CCN21 [Compound E4R]
- IC50 (TNK1 kinase): < 0.5 nM
- AUC(0-t) at 24 h [1]: 83.9 ng·h/mL
- Cmax [1]: 69 ng/mL
- Tmax [1]: 0.5 h
- half-life [1]: 0.99 h

SMILES: COc1cc2c(cc1Nc1ncc(Cl)c(Nc3cccnc3N3CCCC3=O)n1)OC[C@H]1CN(C(C)=O)CCN21 [Compound E5R]
- IC50 (TNK1 kinase): < 0.5 nM
- AUC(0-t) at 24 h [1]: 1560 ng·h/mL
- Cmax [1]: 500 ng/mL
- Tmax [1]: 1 h
- half-life [1]: 1.38 h

SMILES: CCC(=O)N1CCN2c3cc(OC)c(Nc4ncc(Cl)c(Nc5cccnc5N5CCCC5=O)n4)cc3OC[C@H]2C1 [Compound E6R]
- IC50 (TNK1 kinase): < 1 nM
- AUC(0-t) at 24 h [1]: 581 ng·h/mL
- Cmax [1]: 352 ng/mL
- Tmax [1]: 0.5 h
- half-life [1]: 1.05 h

SMILES: COc1cc2c(cc1Nc1ncc(Cl)c(Nc3cccnc3N3CCCC3=O)n1)OC[C@H]1CN(C(=O)C3CC3)CCN21 [Compound E7R]
- IC50 (TNK1 kinase): < 2 nM
- AUC(0-t) at 24 h [1]: 473 ng·h/mL
- Cmax [1]: 292 ng/mL
- Tmax [1]: 0.5 h
- half-life [1]: 1.08 h

SMILES: COc1cc2c(cc1Nc1ncc(Cl)c(Nc3cccnc3N3CCCC3=O)n1)OC[C@H]1CN(C3CN(C)C3)CCN21 [Compound E8R]
- IC50 (TNK1 kinase): < 2 nM
- AUC(0-t) at 24 h [1]: 3170 ng·h/mL
- Cmax [1]: 411 ng/mL
- Tmax [1]: 2 h
- half-life [1]: 3.37 h

SMILES: CCN1CCC(N2CCN3c4cc(OC)c(Nc5ncc(Cl)c(Nc6cccnc6N6CCCC6=O)n5)cc4OC[C@H]3C2)CC1 [Compound E9R]
- IC50 (TNK1 kinase): < 1 nM
- AUC(0-t) at 24 h [1]: 1200 ng·h/mL
- Cmax [1]: 71.6 ng/mL
- Tmax [1]: 9.33 h
- half-life [1]: 14.5 h

SMILES: COc1cc2c(cc1Nc1ncc(Cl)c(Nc3cccnc3N3CCCC3=O)n1)OC[C@H]1CN(C3CCN(C4CC4)CC3)CCN21 [Compound E10R]
- IC50 (TNK1 kinase): < 0.5 nM
- AUC(0-t) at 24 h [1]: 2000 ng·h/mL
- Cmax [1]: 133 ng/mL
- Tmax [1]: 3.67 h
- half-life [1]: 9.69 h

SMILES: COc1cc2c(cc1Nc1ncc(Cl)c(Nc3cccnc3N3CCCC3=O)n1)OC[C@H]1CN(C3CCN(C(C)=O)CC3)CCN21 [Compound E11R]
- IC50 (TNK1 kinase): < 1 nM
- AUC(0-t) at 24 h [1]: 8110 ng·h/mL
- Cmax [1]: 1090 ng/mL
- Tmax [1]: 1.33 h
- half-life [1]: 4.36 h
